In the NIST ThermoML archive (doi:10.1016/j.tca.2012.11.015):

Assay: molar heat capacity at constant pressure
Settings: 101.33 kPa, Crystal, Small sample (50 mg) DSC

[F-].[F-].[F-].[F-].[Li+].[Lu+3] [lithium lutetium fluoride]
Settings	molar heat capacity at constant pressure [J/K/mol]
319.1 K	130.85
320.6 K	131.02
322.3 K	131.32
324.2 K	132.25
326.3 K	132.67
328.5 K	133
330.9 K	133.72
333.4 K	133.98
336 K	134.52
338.8 K	134.79
341.6 K	135.17
344.6 K	135.52
347.6 K	135.82
350.6 K	136.23
353.7 K	136.42
356.9 K	136.86
360.1 K	137.1
363.4 K	137.35
366.6 K	137.71
369.9 K	138.05
373.2 K	138.18
376.4 K	138.33
379.7 K	138.6
382.9 K	138.79
386.1 K	139.07
389.3 K	139.36
392.5 K	139.51
395.7 K	139.75
398.8 K	140.02
401.9 K	140.28
405 K	140.35
408.1 K	140.55
411.1 K	140.85
414.1 K	141
417.1 K	141.21
420.1 K	141.55
423.1 K	141.68
426 K	141.88
428.9 K	142.09
431.8 K	142.34
434.6 K	142.51
437.4 K	142.74
440.3 K	142.93
443.1 K	143.15
445.8 K	143.38
448.6 K	143.52
451.3 K	143.71
454.1 K	144.09
456.8 K	144.11
459.5 K	144.4
462.2 K	144.65
464.9 K	144.87
467.6 K	145.03
470.3 K	145.2
473 K	145.33
475.6 K	145.69
478.3 K	146.04
480.9 K	146.21
483.5 K	146.26
486.2 K	146.62
488.8 K	146.64
491.4 K	146.9
494 K	147.09
496.6 K	147.19
499.2 K	147.37
501.8 K	147.62
504.4 K	147.87
506.9 K	148.03
509.5 K	148.01
512.1 K	148.31
514.7 K	148.51
517.2 K	148.78
519.8 K	148.72
522.4 K	148.99
524.9 K	149.11
527.5 K	149.23
530 K	149.4
532.6 K	149.69
535.1 K	149.98
537.6 K	150.02
540.2 K	150.02
542.7 K	150.2
545.2 K	150.41
547.8 K	150.44
550.3 K	150.65
552.8 K	150.77
555.4 K	150.97
557.9 K	151.21
560.4 K	151.31
562.9 K	151.22
565.4 K	151.35
567.9 K	151.77
570.4 K	152.1
572.9 K	151.97
575.4 K	152.01
577.9 K	152.43
580.4 K	152.52
582.9 K	152.55
585.4 K	152.99
587.9 K	153.06
590.4 K	153.4
592.8 K	153.37
595.3 K	153.54
597.8 K	153.59
600.3 K	153.68
602.8 K	153.91
605.3 K	153.92
607.7 K	153.98
610.2 K	154.22
612.7 K	154.27
615.2 K	154.37
617.6 K	154.5
620.1 K	154.88
622.6 K	154.95
625.1 K	154.9
627.5 K	155.19
630 K	155.25
632.5 K	155.38
634.9 K	155.28
637.4 K	155.32
639.9 K	155.57
642.3 K	155.79
644.8 K	156.13
647.3 K	155.71
649.7 K	156.15
652.2 K	156.38
654.7 K	156.1
657.1 K	156.18
659.6 K	156.74
662.1 K	156.82
664.5 K	156.91
667 K	157.05
669.5 K	157.26
671.9 K	157.26
674.4 K	157.34
676.9 K	157.51
679.3 K	157.82
681.8 K	157.78
684.3 K	157.7
686.7 K	157.84
689.2 K	158.11
691.6 K	158.21
694.1 K	158.28
696.6 K	158.3
699 K	158.66
701.5 K	158.32
704 K	158.88
706.4 K	158.86
708.9 K	158.73
711.3 K	159.06
713.8 K	159.12
716.3 K	159.23
718.7 K	159.5
721.2 K	159.17
723.7 K	159.42
726.1 K	159.52
728.6 K	159.81
731 K	159.67
733.5 K	159.82
736 K	160.19
738.4 K	160.21
740.9 K	159.84
743.4 K	160.74
745.8 K	160.23
748.3 K	160.71
750.8 K	160.51
753.2 K	160.71
755.7 K	160.47
758.1 K	161.09
760.6 K	160.99
763.1 K	161.08
765.5 K	161.21
768 K	161.19
770.5 K	161.33
773 K	161.68
775.4 K	161.44
777.9 K	161.42
780.4 K	161.69
782.8 K	161.76
785.3 K	161.68
787.8 K	161.79
790.2 K	161.81
792.7 K	161.94
795.2 K	162.55
797.7 K	162.37
800.1 K	162.27
802.6 K	162.36
805.1 K	162.55
807.5 K	162.68
810 K	162.67
812.5 K	162.66
815 K	162.95
817.4 K	162.84
819.9 K	162.94
822.4 K	163.1
824.9 K	163.41
827.3 K	163.19
829.8 K	163.53
832.3 K	163.61
834.8 K	163.59
837.3 K	163.47
839.8 K	163.45
842.2 K	163.53
844.7 K	163.85
847.2 K	163.88
849.6 K	163.86
852.1 K	163.85
854.6 K	163.88
857.1 K	163.9
859.6 K	164.11
862.1 K	164.25
864.6 K	164.33
867 K	164.11
869.5 K	164.63
872 K	164.68
874.5 K	164.55
877 K	164.67
879.5 K	164.73
881.9 K	165.01
884.4 K	164.63
886.9 K	165.15
889.4 K	164.71
891.9 K	164.79
894.4 K	164.9
896.9 K	165
899.4 K	165.27
901.8 K	165.61
904.3 K	165.53
906.8 K	165.9
909.3 K	165.68
911.8 K	166.05
914.3 K	165.94
916.8 K	165.71
919.3 K	165.93
921.7 K	165.89
924.2 K	166.2
926.7 K	166.37
929.2 K	166.53
931.7 K	166.66
934.2 K	166.07
936.7 K	166.68
939.2 K	167.32
941.7 K	167.41
944.2 K	167.52
946.7 K	167.43
949.2 K	167.53
951.7 K	167.51
